Test results reported in patent publication US5866775A, “Glyphosate-tolerant 5-enolpyruvyl-3-phosphoshikimate synthases” (Monsanto Company, priority 1990, dated 1999).

How the values were obtained:
[1] = test system: non-transformed canola plants; test: Glyphosate spray of canola, non-transformed controls; assay type: in vivo; conditions: 0.56 kg/ha spray
Source text: A total of 15 transgenic canola plants containing the pMON10074 construct, and 2 non-transformed controls were sprayed with glyphosate at a commercial rate of 0.56 kg/ha. The effect of glyphosate on both the vegetative and reproductive performance of the sprayed plants was scored at 7, 14 and 28 days after spray. The effect of glyphosate was translated to a numerical scale of 0-10, where 0 represents total kill and 10 represents the normal, unsprayed plant. The non-transformed controls had vegetative scores of 2 after 14 days and reproductive scores of 0 after 28 days.

[2] = test system: petunia leaf disks transformed with pMON546 (CaMV35S/EPSP synthase gene); test: Leaf disk callus growth on glyphosate medium, transformed disks; assay type: cell-based; conditions: within 10 days
Protocol: (§1) Leaf disks with diameters of 6 mm (1/4 inch) were taken from surface-sterilized petunia leaves. They were cultured on MS104 agar medium for 2 days to promote partial cell wall formation at the wound surfaces. They were then submerged in a culture of A. tumefaciens cells containing both pMON546 and GV3111-SE which had grown overnight in Luria broth at 28° C., and shaken gently. The leaf disks were removed from the bacterial suspension, blotted dry, and incubated upside down on filter paper placed over "nurse" cultures of tobacco cells, as described by Horsch (1980). After 2 or 3 days, the disks were transferred to petri dishes containing MS media with 500 μg/ml carbenicillin and 0. 0.1, 0.25, or 0.5 mM glyphosate (sodium salt), with no nurse cultures.

[3] = test system: petunia leaf disks transformed with control vector pMON505; test: Leaf disk callus growth on glyphosate medium, control disks; assay type: cell-based; conditions: within 10 days
Protocol: as §1
Control tissue was created using A. tumefaciens cells containing the helper plasmid pGV3111-SE and a different plant transformation vector, pMON505, which contained a T-DNA region with a NOS/NPTII/NOS kanamycin resistance gene and a NOS selectable marker gene identical to pMON546, but without the CaMV35S/EPSP synthase gene.

[4] = test system: tobacco plants transformed with wild-type EPSP synthase; test: Relative effect of glyphosate spray, WT plants; assay type: in vivo, Nicotiana tobacam CV H425
Source text: (§2) A culture of A. tumefaciens cells containing pMON567/pGV3111-SE was co-cultured with leaf disks taken from tobacco plants (Nicotiana tobacam CV H425) as described by Horsch (1985). The Agrobacterium cells inserted the variant EPSP synthase gene into the chromosomes of the plant cells. Plant cells resistant to kanamycin were selected and regenerated into differentiated plants by the procedure of Horsch (1985).
(§3) Progeny of these plants were propagated and grown to a rosette diameter of about 10 cm corresponding to a plant age of about four weeks. The plants were sprayed with glyphosate at levels corresponding to 0.4, 2.0 and 3.6 pounds acid equivalent/acre. The effect of glyphosate on the transformed plants were scored at 7, 14 and 28 days. The effect was translated to a numerical scale of 0-10 in which 0 represents total kill and 10 is the normal, unsprayed plant. […] The values represent the best transformant for both wild-type EPSP synthase and glypho sate-tolerant EPSP synthase genes.

[5] = test system: tobacco plants transformed with glyphosate-tolerant petunia EPSP synthase (pMON567); test: Relative effect of glyphosate spray, GT plants; assay type: in vivo, Nicotiana tobacam CV H425
Source text: as §2, §3

[6] = target: T1, pMON8252 encoded petunia EPSPS variant, glycine (101) to alanine and alanine (192) to threonine (Petunia hybrida, UniProt P11043, A264T/G173A); test: EPSP synthase kinetic constants (appKm PEP, appKi glyphosate); assay type: biochemical
T1 construct: alanine 192 in the mature petunia EPSP synthase; made in house; host or cells: E. coli SR481 (aroA-)
T1 sequence (P11043 73-516 G173A/A264T): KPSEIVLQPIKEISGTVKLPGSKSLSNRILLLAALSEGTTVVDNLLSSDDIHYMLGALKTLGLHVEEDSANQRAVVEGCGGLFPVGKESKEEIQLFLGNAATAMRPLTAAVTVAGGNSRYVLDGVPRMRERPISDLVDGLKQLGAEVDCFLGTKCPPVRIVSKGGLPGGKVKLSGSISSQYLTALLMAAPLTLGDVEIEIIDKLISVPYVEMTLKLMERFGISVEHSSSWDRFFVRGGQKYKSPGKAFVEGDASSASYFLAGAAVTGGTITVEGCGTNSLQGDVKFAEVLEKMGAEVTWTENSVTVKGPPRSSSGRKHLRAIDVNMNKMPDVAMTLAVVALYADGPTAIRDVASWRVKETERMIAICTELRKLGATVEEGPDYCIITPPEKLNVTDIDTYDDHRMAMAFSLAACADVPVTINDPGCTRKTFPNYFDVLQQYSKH
Protocol: The balance of the #742 preculture (~750 μl) was used to inoculate 2 ml of 2XYT medium containing 50 μg/ml carbenicillin and was shaken overnight at 37° C. to reach saturation. Plasmid DNA was isolated from an aliquot of the saturated culture using an alkaline lysis procedure. The plasmid was designated pMON8252. An aliquot of the pMON8252 plasmid was used to transform the E. coli host SR481 (described above) and reselected on MOPS medium containing 10 mM glyphosate and 50 μg/ml carbenicillin. A single glyphosate resistant colony of pMON8252 was picked off the selection plate and used to inoculate 3 ml of 2XY1 bacterial medium containing 50 μg/ml carbenicillin. The culture was then aerated on a rotating wheel at 37° C. until saturated and then used to inoculate a larger 250 ml culture. The large culture was grown to saturation by continuously shaking it overnight at 37° C. in a water bath. The bacterial cells were lysed and the extracts were assayed for EPSPS activity.
Specifically, the bacterial cell paste was washed twice with 0.9% saline, suspended in buffer (100 mM Tris-HCl, 5 mM benzamidine HCl) and passed twice through a French Pressure Cell at 1000 psi. The cell extract was separated from the cells by centrifuging at 15,000×gravity for 10 minutes at 5° C. It was desalted using Sephadex G-50 (Pharmacia, Piscataway, N.J.). The desalted extract was assayed for EPSP synthase activity as follows.
Kinetic constants (appKm PEP and appKi glyphosate) were determined for EPSP synthase as described below. Substrate kinetic parameters were determined at pH 7.9 in 50 mM HEPES (N-[2-hydroxyethyl]piperazine-N'-[2-ethanesulfonic acid]) buffer in the presence of 2 mM S3P and varying amounts of ^14 C-PEP (10 μM-400 μM), for 2.0 minutes at 25° C. Reactions were quenched with 100 mM NaAcetate in ethanol, pH 4.5, centrifuged and analyzed for product EPSP formation by HPLC with flow radioactivity detection. HPLC conditions were 0.35M KPi, pH 6.5, on a Synchropak AX100 column at 1.0 ml/minute.

[7] = 0.25 mM glyphosate (sodium salt)
[8] = 0.5 mM glyphosate (sodium salt)
[9] = 0.4 pounds/acre (0.448 kg/hectare), day 7, best transformant
[10] = 0.4 pounds/acre (0.448 kg/hectare), day 14, best transformant
[11] = 0.4 pounds/acre (0.448 kg/hectare), day 28, best transformant
[12] = 2.0 pounds/acre (2.242 kg/hectare), day 7, best transformant
[13] = 2.0 pounds/acre (2.242 kg/hectare), day 14, best transformant
[14] = 2.0 pounds/acre (2.242 kg/hectare), day 28, best transformant
[15] = 3.6 pounds/acre (4.035 kg/hectare), day 7, best transformant
[16] = 3.6 pounds/acre (4.035 kg/hectare), day 14, best transformant
[17] = 3.6 pounds/acre (4.035 kg/hectare), day 28, best transformant

Structure (SMILES): O=C(O)CNCP(=O)(O)O [glyphosate, N-phosphonomethylglycine]
- vegetative score (scale 0-10, 0 total kill, 10 normal unsprayed plant) ([1]; after 14 days): 2
- reproductive score (scale 0-10, 0 total kill, 10 normal unsprayed plant) ([1]; after 28 days): 0
- callus growth, transformed versus control disks ([2]; 0.1 mM glyphosate (sodium salt)): little detectable difference between the control disks and the transformed tissue
- callus growth [2, 7]: substantial growth of transformed tissue occurred
- callus growth [2, 8]: a significant number of calli grew from the transformed disks
- callus growth [3, 7]: very little growth of callus from control disks
- callus growth [3, 8]: no callus growth from the control disks
- Relative Effect of Glyphosate (0 total kill, 10 no effect) [4, 9]: 6.0
- Relative Effect of Glyphosate (0 total kill, 10 no effect) [4, 10]: 7.0
- Relative Effect of Glyphosate (0 total kill, 10 no effect) [4, 11]: 9.0
- Relative Effect of Glyphosate (0 total kill, 10 no effect) [4, 12]: 5.0
- Relative Effect of Glyphosate (0 total kill, 10 no effect) [4, 13]: 1.8
- Relative Effect of Glyphosate (0 total kill, 10 no effect) [4, 14]: 0.8
- Relative Effect of Glyphosate (0 total kill, 10 no effect) [4, 15]: 5.0
- Relative Effect of Glyphosate (0 total kill, 10 no effect) [4, 16]: 1.7
- Relative Effect of Glyphosate (0 total kill, 10 no effect) [4, 17]: 0.8
- Relative Effect of Glyphosate (0 total kill, 10 no effect) [5, 9]: 8.0
- Relative Effect of Glyphosate (0 total kill, 10 no effect) [5, 10]: 8.0
- Relative Effect of Glyphosate (0 total kill, 10 no effect) [5, 11]: 9.0
- Relative Effect of Glyphosate (0 total kill, 10 no effect) [5, 12]: 8.0
- Relative Effect of Glyphosate (0 total kill, 10 no effect) [5, 13]: 8.3
- Relative Effect of Glyphosate (0 total kill, 10 no effect) [5, 14]: 7.0
- Relative Effect of Glyphosate (0 total kill, 10 no effect) [5, 15]: 5.0
- Relative Effect of Glyphosate (0 total kill, 10 no effect) [5, 16]: 7.4
- Relative Effect of Glyphosate (0 total kill, 10 no effect) [5, 17]: 7.0
- Ki /Km ratio ([6]; Ki glyphosate / Km PEP): 12.6
- Ki for glyphosate ([6]; versus PEP, extract of SR481 cells with pMON8252): 683 µM
